Reference: patent publication US10357491B2, “Method of treating a brain tumor” (BeyondSpring Pharmaceuticals, Inc., priority 2015, dated 2019)

Key:
[1] = system: PDGF-induced gliomas that expressed G12D mutant KRAS; test: Survival of mice with PDGF-induced gliomas expressing G12D mutant KRAS treated with Plinabulin plus TMZ plus radiation; format: in vivo; details: Plinabulin 7.5 mg/kg i.p. twice a week for 10 weeks plus TMZ plus radiation 10gy x1; p=0.0149
Procedure: Mice with PDGF-induced gliomas that expressed G12D mutant KRAS were prepared using the procedures according to Example 1 and used in this experiment. 4-6 week old nestin-tv-a/ink4a-arf−/− mice were anesthetized with Isoflurane and injected with Df-1 cells transfected RCAS-PDGF-B-HA, RCAS-KRAS. Mice were injected with one microliter of a 1:1 mixture of 2×10^5 RCAS-PDGF-B-HA/RCAS-KRAS using a stereotactic frame via a 26-gauge needle attached to a Hamilton syringe. Cells were injected into the right frontal cortex, coordinates bregma 1.75 mm, Lat −0.5 mm, and a depth of 2 mm.
The mice were entered into two study groups. One group was treated with the combination of temozolomide (TMZ), Radiation and Plinabulin: radiation was given at 10gy×1, TMZ and Plinabulin 7.5 mg/kg in Plinabulin diluent was administered intraperitoneally twice a week on Monday and Thursday for 10 weeks. The other group, the control group, was treated with the combination of TMZ and radiation: radiation was given at 10gy×1, TMZ was administered intraperitoneally twice a week on Monday and Thursday for 10 weeks. the mice were monitored for lethargy, hunched posture, appetite loss, outward signs of tumor growth, agitation, weight-loss and overall failure to thrive. […]

[2] = system: PDGF-induced gliomas that expressed G12D mutant KRAS; test: Survival of mice with PDGF-induced gliomas expressing G12D mutant KRAS treated with Plinabulin; format: in vivo; details: Plinabulin 7.5 mg/kg i.p. twice per week for 10 weeks; control: Plinabulin diluent only; p=0.001
Excerpt: Mice with PDGF-induced gliomas using RCAS/tv-a were generated. The mice were transgenic for expression of the RCAS receptor (tv-a) from the nestin promoter and having a background of ink4a/arf−/− and lox-stop-lox luciferase, were infected with RCAS-PDGF, or the combination of RCAS-PDGF and RCAS-KRAS that expressed G12D mutant KRAS. The resultant tumors occurred within the first 4-5 weeks in this background for PDGF alone, and about a week shorter for the tumors arising from the combination of PDGF and RCAS. The tumors had the histological characteristics of GBM and were identified by symptoms of lethargy and poor grooming, MRI scans using a T2 weighted sequence, or bioluminescence imaging with an IVIS system. For radiation therapy, mice were treated with 10Gy per day cranially for a single dose.
Plinabulin was tested on mice with PDGF-induced gliomas that expressed G12D mutant KRAS. 4-6 week old nestin-tv-a/ink4a-arf−/− mice were anesthetized with Isoflurane and injected with Df-1 cells transfected RCAS-PDGF-B-HA, RCAS-KRAS. Mice were injected with one microliter of a 1:1 mixture of 2×10^5 RCAS-PDGF-B-HA/RCAS-KRAS using a stereotactic frame via a 26-gauge needle attached to a Hamilton syringe. […] The mice were monitored for lethargy, hunched posture, appetite loss, outward signs of tumor growth, agitation, weight-loss and overall failure to thrive. […]

CC(C)(C)c1[nH]cnc1/C=c1\[nH]c(=O)/c(=C/c2ccccc2)[nH]c1=O [Plinabulin, (3Z,6Z)-3-Benzylidene-6-{[5-(2-methyl-2-propanyl)-1H-imidazol-4-yl]methylene}-2,5-piperazinedione]
survival rate vs control group that received TMZ plus radiation (FIG. 4) [1]: significantly better survival rate
survival rate vs control group (FIG. 3) [2]: significantly better survival rate
